# Measurements taken from article PMC11214487, “YZL-51N functions as a selective inhibitor of SIRT7 by NAD^+ competition to impede DNA damage repair” (iScience, 2024).
# Key:
# SIRT7 [1] = biological target: T1, SIRT7 (Homo sapiens, UniProt Q9NRC8); test: Dot blot assay of SIRT7-mediated H3K18ac peptide deacetylation; format: biochemical
# T1 construct: His-tagged full length SIRT7 protein expression from BL21 bacterial cells; His; made in house; host or cells: E. coli BL21
# T1 sequence (Q9NRC8 1-400): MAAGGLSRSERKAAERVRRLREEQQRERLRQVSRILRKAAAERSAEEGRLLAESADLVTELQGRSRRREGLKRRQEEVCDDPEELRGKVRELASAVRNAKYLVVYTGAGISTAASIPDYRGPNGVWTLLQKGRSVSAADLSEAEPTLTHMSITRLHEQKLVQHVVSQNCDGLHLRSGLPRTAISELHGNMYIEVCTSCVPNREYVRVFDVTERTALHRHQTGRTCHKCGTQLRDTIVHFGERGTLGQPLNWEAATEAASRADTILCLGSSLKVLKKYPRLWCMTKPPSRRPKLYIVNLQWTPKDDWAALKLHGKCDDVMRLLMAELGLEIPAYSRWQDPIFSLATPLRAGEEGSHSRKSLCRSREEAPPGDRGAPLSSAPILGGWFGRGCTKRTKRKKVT
# Excerpt: To avoid the bias of the fluorescence assay, we also performed dot blot assays for the effects of natural compounds on SIRT7-mediated deacetylation of H3K18ac peptides in vitro (Figures S2A and S2B). In this system, SIRT7 mediated a dose-dependent deacetylation of H3K18ac (Figure 1D). […] Based on comparisons of all the candidates, we selected YZL-51N as the best for further investigation (Figure 1F). […] Thus, P. americana derived YZL-51N was confirmed as an identified SIRT7 inhibitor using parallel peptide-based screening platforms.
# For dot blot assays, the reaction system containing 10 μg His-SIRT7, 0.5 mM NAD^+, 10 μM biotin-H3K18ac peptides and 50 μM potential compound was mixed and incubated at 37°C for 90 min. Samples were transferred to a polyvinylidene difluoride (PVDF) membrane, and then blocked with 5% skimmed milk. The blots were probed with H3K18ac primary antibody at RT for 2 h and then incubated with secondary antibody at RT for 1h. The bands were visualized using ECL substrates (Thermo Fisher, USA) on Tanon 5200SF Imaging System.
# SIRT1/2/3/5/6 = test: Sirtuin deacetylation assay (fluorometric ELISA kit), other sirtuins; format: biochemical, human; settings: different concentrations
# Excerpt: To determine the selectivity of YZL-51N, we assessed its inhibitory activity against recombinant human sirtuins expressed in E. coli through deacetylation assays in vitro (Figures 2A and 2B). […] We next validated the direct interaction between YZL-51N and SIRT1/2/6/7 using bio-layer interferometry (BLI) assays to compare their binding affinities. […] To gain insights into the ability of YZL-51N to affect sirtuin thermostability, we conducted protein thermal shift assays. At a concentration of 10 μM, YZL-51N caused shifts in the melting curves for SIRT7, SIRT6 and SIRT1 of 2.86°C, 1.0°C and 0.45°C (Figures S7A–S7C). In addition, we observed a dose-dependent increase in the ΔTm for SIRT7 following YZL-51N treatment (Figures 2F and 2G). Taken together, these findings confirm that YZL-51N is a selective inhibitor of SIRT7.
# Deacetylase activity of 10 μg purified SIRT proteins was assessed using the Sirtuin Activity Assay Kit (BioVision, Cat#K324-100, USA) according to the manufacturer’s instructions. The fluorescence intensity (Ex/Em = 400/505 nm) was measured using a microplate reader (Synergy H4 Hybrid Reader, Biotek) in the end-point mode.
# SIRT6 = SIRT6 (Homo sapiens, UniProt Q8N6T7); test: Protein thermal shift assay; format: binding; settings: 10 μM
# Procedure: The mixture containing SIRT1, SIRT6 or SIRT7 proteins, SYPRO Orange, compounds and buffer (100 mM Tris-HCl, 40 mM NaCl, 10 mM MgCl2, pH=7.4) were added into 0.2 mL PCR tubes for a total volume of 20 μL and placed in an ABI ViiA 7 Real-time PCR System. The temperature ranging from 35.0 to 75.0°C was increased at a rate of 0.5°C/s and the fluorescence intensity was monitored in the ROX channel.
# SIRT7 [2] = biological target: T1, SIRT7; test: Surface plasmon resonance (SPR) binding assay
# Procedure: All SPR measurements were performed on Biacore T200 instrument (GE Healthcare) with running buffer (PBS+5% DMSO) at room temperature. The bacterially purified His-SIRT7 was covalently immobilized onto Series S Sensor Chip CM5 by a standard amino-coupling procedure in 10 mM sodium acetate (pH 5.5). Two-fold serial dilutions of YZL-51N or NAD^+ in 5% DMSO passed through the sensor chip at 30 μL/min for 120 s, followed by 240 s of dissociation flow. The KD value was calculated based on the concentration dependence of the observed steady-state response using Biacore T200 Evaluation software Version 1.0 (GE Healthcare).
# HCT116 xenograft = HCT116 xenograft model; format: in vivo, BALB/c nude mice
# Procedure: For the xenograft models, HCT116 cells (5 x 10^6 in 100 μL of PBS) were inoculated subcutaneously into the dorsal flank of the 4-week-old male BALB/c nude mice. The mice were randomly divided into control, drug treatment, IR treatment and combination treatment groups. Control group was injected with PBS. Drug treatment group was treated with 15 mg/kg YZL-51N every 3 d. In IR treatment group, the tumor site was irradiated with 3 Gy every 3 d. The combination group was treated with both 15 mg/kg YZL-51N and 3 Gy IR. The tumor size was estimated from the measurement of the longest diameter across the tumor and the corresponding perpendicular diameter. Tumor volumes were assessed on indicated days by a caliper and calculated using the formula: volume = (length x width[2])/2.
# SIRT6, sequence (Q8N6T7 whole entry): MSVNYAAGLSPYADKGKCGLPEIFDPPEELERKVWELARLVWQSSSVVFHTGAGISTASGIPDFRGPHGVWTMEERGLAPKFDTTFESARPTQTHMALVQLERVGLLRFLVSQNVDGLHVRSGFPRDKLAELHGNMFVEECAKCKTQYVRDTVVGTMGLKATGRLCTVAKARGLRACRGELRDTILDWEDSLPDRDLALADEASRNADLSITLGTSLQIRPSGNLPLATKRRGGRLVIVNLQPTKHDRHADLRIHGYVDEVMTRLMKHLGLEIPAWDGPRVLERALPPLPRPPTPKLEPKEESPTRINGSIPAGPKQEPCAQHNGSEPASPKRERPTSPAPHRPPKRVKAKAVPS
smiles,measurement,setting,value
COC(=O)/C(=C\C(=O)c1ccc(O)c(O)c1)c1ccc(O)c(O)c1 [YZL-51N],Rescue of H3K18 acetylation,"SIRT7 [1]; dot blot screening, 50 μM",rescued H3K18 acetylation
same,EC50,SIRT7 [1]; read-out: Dot blot assay H3K18ac rescue EC50,13.5 µM
same,Inhibition of deacetylase activities of other sirtuins,SIRT1/2/3/5/6,did not inhibit
same,Shift in the melting curve,SIRT6,1.0 °C
same,disassociation rate (koff),SIRT7 [2],0.0006315 s⁻¹
same,Kd,SIRT7 [2]; immobilized His-SIRT7,1.02 µM
same,kon,SIRT7 [2]; read-out: association rate (kon),618 M⁻¹ s⁻¹
same,"Tumor therapy, co-treatment with IR",HCT116 xenograft; 15 mg/kg YZL-51N and 3 Gy IR every 3 days,more effective
same,Tumor volume,"HCT116 xenograft; 15 mg/kg every 3 days, alone",reduction on the tumor volume
